42 molecules from publication PMC7076710, “Synthesis, Identification, and Structure–Activity Relationship Analysis of GATA4 and NKX2-5 Protein–Protein Interaction Modulators” (Journal of Medicinal Chemistry, 2019) can be followed below.

This experiment has as its target T1, GATA4–NKX2-5 transcriptional synergy (Mus musculus, UniProt P42582+Q08369).
T1 construct: expressed in transfected cells; host or cells: COS-1
Nature of the experiment: GATA4–NKX2-5 transcriptional synergy luciferase reporter assay (3xNKE reporter, COS-1 cells). The format is cell-based. The protocol:
To screen compounds for the GATA4–NKX2-5 interaction, we have developed a luciferase reporter assay based on their property to activate gene transcription synergistically through the NKX2-5 binding site on DNA.[28] In this assay, we transfected mammalian COS-1 cells with protein expression vectors for GATA4 and NKX2-5 proteins together with artificial luciferase reporter vector containing three high affinity binding sites for NKX2-5 (NKE). […] All 257 compounds were tested in two concentrations, 3 and 10 μM. Compounds either inhibited, enhanced, or had no effect on the GATA4–NKX2-5 transcriptional synergy. To investigate the selectivity of the active compounds, we tested their effects on NKX2-5 transcriptional activity by using the same luciferase reporter vector as in transcriptional synergy assay with three NKE sites (Figure 3B). Furthermore, we used GATA luciferase reporter assay to examine if compounds have an effect on GATA4 transcriptional activity. In this assay, we cotransfected the cells with a GATA4 protein expression vector and a reporter vector with tandem GATA4 binding sites (Figure 3C). Previously we have reported that compound 1 inhibited the GATA4–NKX2-5 transcriptional synergy at micromolar concentrations (IC50 = 3 μM).[29]
The plasmids expressing mouse GATA4 protein, pMT2-GATA4, and empty pMT2 were gifts from D. B. Wilson (Department of Pediatrics, St. Louis Children’s Hospital, St. Louis, MO).[44] The plasmids expressing mouse NKX2-5 protein, pMT2-NKX2-5, have been described earlier.[28] The luciferase reporter plasmid used in GATA4–NKX2-5 transcriptional synergy assay and NKX transcriptional assay, pGL3-3xHA, contains three high affinity binding sites for NKX2-5.[28] The luciferase reporter plasmid used in GATA transcriptional assay, NP-112, contains tandem GATA-sites and minimal promoter of rat brain natriuretic peptide (BNP) gene.[45] The pGL3-BNP luciferase reporter containing −534/+4 bp rat BNP proximal promoter described previously was used in hypertrophy assay.[46]
The primary screening assay of compounds’ effect on GATA4–NKX2-5 transcriptional synergy and COS-1 cell culturing has been described earlier.[33] […] (Kinnunen et al., unpublished observation). Briefly, COS-1 cells were seeded at 14 000 cells/well in Isoplate-96 microplates (PerkinElmer, Turku, Finland) and grown overnight. The cells were transfected with the luciferase reporter plasmid pGL3-3xHA 100 ng/well and equal amounts of expression plasmids pMT2-GATA4 and pMT2-NKX2-5 total 50 ng/well. To verify the synergistic effect, the cells were transfected with pMT2-GATA4 or pMT2-NKX2-5 25 ng/well, and the total DNA concentration was adjusted to 50 ng/well with empty pMT2 plasmid. In NKX2-5 and GATA4 luciferase reporter assays, the cells were transfected with reporter plasmid pGL3-3xHA or NP-112 (100 ng/well) and expression plasmid pMT2-NKX2-5 or pMT2-GATA4 (25 ng/well). The ratio of DNA/transfection reagent (Fugene 6, Promega) was 1:3 in all assays. The transfections were performed in serum and antibiotics free media for 6 h. The cells were treated with compounds or vehicle (0.1% DMSO) for 24 h, and the luminescence was measured using neolite Reporter Gene Assay System (PerkinElmer, Turku, Finland) and Victor2 plate reader (PerkinElmer, Turku, Finland).
Raw luciferase data were analyzed in Excel, and clear outliers were removed from triplicates by using the Grubb’s test. Data analysis was performed using R.[49] The luciferase data were first normalized on the basis of the combined mean value of controls. For data visualization and creation of figures, the following R packages were used: ggplot2, cowplot, RColorBrewer, and pheatmap. The heatmaps of the toxicity data were produced with GraphPad Prism 7.00 (GraphPad Software, La Jolla, CA). Statistical significance of luciferase reporter assay data was evaluated by randomized block analysis of variance followed by Dunnett’s post hoc test. […]
For orientation: In a reporter assay the amount or activity of a reporter protein is the signal.

Setting [1] is: COS-1, compound 3 µM, luciferase reporter activity relative to control.
Where [2] appears, read: COS-1, compound 10 µM, luciferase reporter activity relative to control.
Setting [3] is: COS-1, GATA4-NKX2-5 transcriptional synergy luciferase reporter assay, compound at 3 µM.
[4] abbreviates: COS-1, GATA4-NKX2-5 transcriptional synergy luciferase reporter assay, compound at 10 µM.
Setting [5] is: COS-1, 3 µM, luciferase reporter activity, % of control.
[6] abbreviates: 3 µM compound, GATA4–NKX2-5 transcriptional synergy reporter, COS-1 cells.
Where [7] appears, read: 10 µM compound, GATA4–NKX2-5 transcriptional synergy reporter, COS-1 cells.
Setting [8] is: COS-1, compound 3 µM, luciferase reporter activity, spread in separate STDEV column.
[9] abbreviates: COS-1, compound 10 µM, luciferase reporter activity, spread in separate STDEV column.
[10] abbreviates: COS-1, 10 µM, luciferase reporter activity, % of control.
Setting [11] is: COS-1, compound at 3 µM, luciferase reporter activity, % of control.
Setting [12] is: COS-1, compound at 10 µM, luciferase reporter activity, % of control.

T1 sequence (Q08369 whole entry): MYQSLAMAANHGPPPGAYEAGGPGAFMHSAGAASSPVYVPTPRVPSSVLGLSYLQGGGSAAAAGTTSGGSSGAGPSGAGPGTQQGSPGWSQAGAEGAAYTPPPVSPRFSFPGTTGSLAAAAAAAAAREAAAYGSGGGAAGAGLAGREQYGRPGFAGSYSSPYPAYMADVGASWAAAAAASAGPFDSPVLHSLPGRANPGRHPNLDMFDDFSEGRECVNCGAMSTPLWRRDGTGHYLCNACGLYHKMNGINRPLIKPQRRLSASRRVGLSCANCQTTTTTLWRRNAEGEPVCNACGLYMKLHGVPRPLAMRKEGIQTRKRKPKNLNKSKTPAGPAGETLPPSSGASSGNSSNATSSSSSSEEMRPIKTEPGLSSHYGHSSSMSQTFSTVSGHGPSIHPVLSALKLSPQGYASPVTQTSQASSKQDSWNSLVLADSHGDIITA
T1 sequence (P42582 whole entry): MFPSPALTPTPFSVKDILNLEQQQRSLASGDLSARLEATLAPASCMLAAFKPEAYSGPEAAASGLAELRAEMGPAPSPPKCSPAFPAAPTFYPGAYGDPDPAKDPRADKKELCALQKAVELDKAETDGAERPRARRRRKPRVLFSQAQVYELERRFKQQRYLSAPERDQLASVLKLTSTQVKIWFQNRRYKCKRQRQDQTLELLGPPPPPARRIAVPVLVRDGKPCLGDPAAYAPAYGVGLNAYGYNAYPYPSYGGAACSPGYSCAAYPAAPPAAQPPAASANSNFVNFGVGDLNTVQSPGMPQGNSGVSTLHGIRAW

Consider `CCN(CC)c1ccc(CNCc2c[nH]nc2-c2ccccc2)cc1` [SI84], for which the activity at 3 µM under setting [1] amounted to 91.3%. Besides, the activity at 10 µM under setting [2] was found to be 84.8%. With `CN(C)c1c(F)cc(NC(=O)c2cc(-c3ccco3)on2)cc1F` [SI129], under setting [3], the activity at 3 µM turned out to be 94.3%. Further, under setting [4], the activity at 10 µM was 115%.

Turning to `CCN(CC)c1ccc(N(Cc2ccccc2)C(=O)c2c(-c3ccccc3)noc2C)cc1` [Compound 25c], the activity at 3 µM under setting [5] was determined as 80.2%.

Take `CCN(CC)c1ccc(NC(=O)c2c[nH]nc2-n2cnnn2)cc1` [Compound 47g, N-[4-(Diethylamino)phenyl]-3-(1H-tetrazol-1-yl)-1H-pyrazole-4-carboxamide]: the activity at 3 µM under setting [6] amounted to 102%. On to `O=C(Nc1ccc2oc(-c3ccccc3)cc(=O)c2c1)c1snnc1-c1ccccc1` [SI104], for which the activity at 3 µM under setting [6] is 103%. Besides, the activity at 10 µM under setting [7] worked out at 94.9%. Take `Cc1onc(-c2ccc(Br)s2)c1C(=O)Nc1ccc(C(C)C)cc1` [SI116]: the activity at 3 µM under setting [8] was 99.4%. In addition, the activity at 10 µM under setting [9] amounted to 97.2%. Regarding `CCN(CC)c1ccc(NC(=O)c2c(C(F)(F)F)nn(C)c2Oc2ccccc2)cc1` [Compound 47q], the activity at 3 µM under setting [6] amounted to 94.5%. Consider `CCN(CC)c1ccc(NC(=O)c2c(-c3ccccc3)nnn2C)cc1` [Compound 47o], for which, under setting [1], the activity at 3 µM was found to be 113%. With `Cc1onc(-c2ccccc2)c1COCc1ccc(OC(F)(F)F)cc1` [SI49], the activity at 3 µM under setting [5] was 92.6%. Further, the activity at 10 µM under setting [10] is 82.9%. As for `CCN(CC)C(=O)c1ccc(OCc2c(-c3ccccc3)noc2C)cc1` [Compound 36b], the activity at 3 µM under setting [1] was found to be 79.3%. `O=C(Nc1ccc2oc(-c3ccccc3)cc(=O)c2c1)c1cnsc1` [SI100]: the activity at 3 µM under setting [1] stood at 112%. The activity at 10 µM under setting [2] is 117%.

Consider `CCN(CC)c1ccc(N(CCF)C(=O)c2c(-c3ccccc3)noc2C)cc1` [Compound 25b], for which the activity at 3 µM under setting [1] was found to be 81.6%. `CCN(CC)c1ccc(NC(=O)c2nn(-c3ccccc3)nc2C)cc1` [Compound 47b]: the activity at 3 µM under setting [5] stood at 97.7%. Besides, the activity at 10 µM under setting [10] was 101%. Turning to `CCN(c1ccc(NC(=O)c2c(C)noc2-c2snnc2C)cc1)C(C)C` [Compound 62], the activity at 3 µM under setting [6] came out at 31%. As to `CCN(CC)c1ccc(NCc2c[nH]nc2-c2ccc(F)cc2)cc1` [SI81], the activity at 3 µM under setting [6] is 98.1%. Also, the activity at 10 µM under setting [7] worked out at 82.3%. For the molecule `Cc1onc(-c2ccccc2)c1C(=O)Nc1ccc(OCC(F)(F)F)c(Cl)c1` [SI13], under setting [8], the activity at 3 µM came to 89.2%. Also, under setting [9], the activity at 10 µM amounted to 71.6%. Turning to `Cc1onc(-c2ccccc2)c1NC(=O)CCCCCBr` [SI31], under setting [5], the activity at 3 µM came to 66.7%. Also, under setting [10], the activity at 10 µM was found to be 78.2%. For `CCN(CC)c1ccc(CN(C(=O)Nc2ccc(C#N)cc2)c2c(-c3ccccc3)noc2C)cc1` [Compound 30d], the activity at 3 µM under setting [1] came out at 90%. Take `COc1ccc(NC(=O)c2c(-c3ccc(Br)s3)noc2C)cc1Cl` [SI115]: the activity at 3 µM under setting [8] worked out at 92%. Further, under setting [9], the activity at 10 µM was determined as 91.9%. On to `O=C(Nc1ccc2oc(-c3ccccc3)cc(=O)c2c1)c1ncoc1-c1ccccc1` [SI102], for which, under setting [6], the activity at 3 µM was 103%. Further, the activity at 10 µM under setting [7] came out at 91.3%. In the case of `Cc1onc(-c2ccccc2)c1COc1ccc(C(=O)O)cc1` [Compound 38, 4-[(5-Methyl-3-phenylisoxazol-4-yl)methoxy]benzoic Acid], the activity at 3 µM under setting [1] turned out to be 102%.

For the molecule `Cc1onc(-c2ccccc2)c1C(=O)Nc1ccc(Nc2ccccc2)cc1` [SI5], the activity at 3 µM under setting [5] amounted to 105%. Besides, under setting [10], the activity at 10 µM was determined as 89.1%. `CCN(c1ccc(NC(=O)c2c(-c3ccccc3)noc2C)cc1N)C(C)C` [Compound 9, N-[3-Amino-4-[ethyl(isopropyl)amino]phenyl]-5-methyl-3-phenylisoxazole-4-carboxamide]: under setting [11], the activity at 3 µM was found to be 92.6%. Regarding `CCN(CC)c1ccc(NC(=O)c2cnoc2C2CC2)cc1` [Compound 47r], the activity at 3 µM under setting [5] turned out to be 114%. The activity at 10 µM under setting [10] came to 145%.

As for `Cc1onc(-c2ccccc2)c1NC(=O)Nc1cccc(C(F)(F)F)c1` [SI24], under setting [5], the activity at 3 µM is 109%. In addition, under setting [10], the activity at 10 µM was 86.5%. Consider `CCN(CC)c1ccc(NC(=O)c2ccsc2)cc1` [Compound 55], for which the activity at 10 µM under setting [10] was 108%. In the case of `Cc1onc(-c2ccccc2)c1C(=O)Nc1ccc(C(=O)OCC#N)cc1` [Compound 10a, Cyanomethyl 4-(5-Methyl-3-phenylisoxazole-4-carboxamido)benzoate], the activity at 3 µM under setting [6] was determined as 95%.

As for `CCN(CC)c1ccc(NC(=O)c2c(C)noc2-c2noc(C)c2C)cc1` [SI73], the activity at 3 µM under setting [8] turned out to be 86%. The activity at 10 µM under setting [9] was determined as 97.9%. Regarding `C#Cc1ccc(NC(=O)c2c(-c3ccccc3)noc2C)cc1` [Compound 15, N-(4-Ethynylphenyl)-5-methyl-3-phenylisoxazole-4-carboxamide], the activity at 3 µM under setting [6] turned out to be 93.2%. Consider `CC(=O)COC(=O)c1ccc(NC(=O)c2c(-c3ccccc3)noc2C)cc1` [SI3], for which, under setting [8], the activity at 3 µM was 85.8%. Moreover, the activity at 10 µM under setting [9] amounted to 98.5%. Regarding `O=C(Nc1ccc2oc(-c3ccccc3)cc(=O)c2c1)c1c[nH]nc1-c1ccccc1` [SI90], under setting [6], the activity at 3 µM amounted to 102%. Under setting [7], the activity at 10 µM was 71.2%.

`Cc1onc(-c2ccccc2)c1CNc1ccc2oc(-c3ccccc3)cc(=O)c2c1` [SI40]: the activity at 3 µM under setting [6] stood at 94.8%. Also, under setting [7], the activity at 10 µM came to 99.6%. For the molecule `Cc1onc(-c2ccccc2)c1NC(=O)Nc1ccc(C(=O)c2ccccc2)cc1` [SI26], the activity at 3 µM under setting [5] was 94.9%. Also, the activity at 10 µM under setting [10] came to 72.7%. With `Cc1cc(NC(=O)c2cnn(C)c2-c2ccccc2)ccc1C(C)C` [SI87], under setting [6], the activity at 3 µM was 88.1%. Also, the activity at 10 µM under setting [7] was determined as 68.4%. As to `CCN(CC)c1ccc(NC(=O)c2ccnc(C(F)(F)F)c2)cc1` [Compound 47ac], the activity at 3 µM under setting [6] is 88.3%. In the case of `CCN(CC)c1ccc(C(=O)On2nnc3ccccc32)cc1` [SI22], under setting [5], the activity at 3 µM is 80.4%. In addition, the activity at 10 µM under setting [10] amounted to 114%. On to `CCN(CC)c1ccc(NC(=O)c2c(-c3cccc(Br)c3)noc2C)c(C)c1` [SI131], for which the activity at 3 µM under setting [3] worked out at 85.4%. Further, under setting [4], the activity at 10 µM amounted to 88.3%. `CCN(CC)C(=O)c1cc(-c2cccs2)on1` [SI114]: under setting [8], the activity at 3 µM was found to be 124%. For the same molecule, under setting [9], the activity at 10 µM was 115%.

For `COc1ccc(NC(=O)n2nc(N)cc2-c2ccc(OC)cc2)cc1` [SI99], the activity at 3 µM under setting [11] turned out to be 79.8%. Besides, the activity at 10 µM under setting [12] amounted to 108%. As for `CCN(CCO)c1ccc(NC(=O)c2c(-c3ccccc3)noc2C)cc1` [Compound 4b], the activity at 3 µM under setting [11] came out at 93.7%. In the case of `CCN(CC)c1ccc(NC(=O)c2c(SC)nsc2SC)cc1` [Compound 47w], the activity at 3 µM under setting [6] turned out to be 115%. The activity at 10 µM under setting [7] stood at 112%. Turning to `Cc1onc(-c2ccccc2)c1C(=S)Nc1ccc(OCc2ccccc2)cc1` [SI37], under setting [11], the activity at 3 µM came to 108%. Under setting [12], the activity at 10 µM was 87.4%.
